Data on 21 compounds can be found in ChEMBL document CHEMBL3608254, “Discovery of novel triazolobenzazepinones as γ-secretase modulators with central Aβ42 lowering in rodents and rhesus monkeys” (Bioorg Med Chem Lett, 2015).

Data set [1] concerns the target Gamma-secretase. The data set can be described thus: Inhibition of gamma-secretase in human SH-SY5Y cells expressing beta-APP C-terminal fragment SPA4CT assessed as decrease of amyloid beta-42 level by electrochemiluminescent method. Format: cell-based.
Data set [2] is described as follows: Inhibition of gamma-secretase-mediated cleavage of NotchdeltaE in human HeLa cells expressing NotchdeltaE assessed as intracellular release of Notch intracellular domain (NICD)/N-terminal luciferase by luminescent method. Format: cell-based.
The target of data set [3] is Voltage-gated inwardly rectifying potassium channel KCNH2 (Homo sapiens, UniProt Q12809).
Description: Binding affinity to human ERG expressed in HEK cells by MK-499 radioligand displacement assay
Data set [4] deals with Rattus norvegicus. The data set can be described thus: Antialzheimer's disease activity in po dosed Sprague-Dawley rat assessed as reduction of amyloid beta-40/42 level in brain measured after 6 hrs. Format: functional.
The target in data set [5] is Gamma-secretase. The data set can be described thus: Inhibition of gamma-secretase in human SH-SY5Y cells expressing beta-APP C-terminal fragment SPA4CT assessed as decrease of amyloid beta-40 level by electrochemiluminescent method. Format: cell-based.
For data set [6], the system named is Mus musculus. The data set can be described thus: Antialzheimer's disease activity in po dosed APP-YAC transgenic mouse assessed as reduction of amyloid beta-40/42 level in brain measured after 6 hrs. The format is functional.
Data set [7] in a line: Half life in rat liver microsomes. The format is ADME. In general terms: Liver microsomes are vesicles of endoplasmic reticulum, rich in cytochrome P450 enzymes.
For data set [8], the target named is Sodium-dependent serotonin transporter (Homo sapiens, UniProt P31645). The data set can be described thus: Inhibition of SERT (unknown origin).

The source made the active and inactive calls. Bounds are passed on as bounds.

Voltage-gated inwardly rectifying potassium channel KCNH2, sequence (Q12809 whole entry): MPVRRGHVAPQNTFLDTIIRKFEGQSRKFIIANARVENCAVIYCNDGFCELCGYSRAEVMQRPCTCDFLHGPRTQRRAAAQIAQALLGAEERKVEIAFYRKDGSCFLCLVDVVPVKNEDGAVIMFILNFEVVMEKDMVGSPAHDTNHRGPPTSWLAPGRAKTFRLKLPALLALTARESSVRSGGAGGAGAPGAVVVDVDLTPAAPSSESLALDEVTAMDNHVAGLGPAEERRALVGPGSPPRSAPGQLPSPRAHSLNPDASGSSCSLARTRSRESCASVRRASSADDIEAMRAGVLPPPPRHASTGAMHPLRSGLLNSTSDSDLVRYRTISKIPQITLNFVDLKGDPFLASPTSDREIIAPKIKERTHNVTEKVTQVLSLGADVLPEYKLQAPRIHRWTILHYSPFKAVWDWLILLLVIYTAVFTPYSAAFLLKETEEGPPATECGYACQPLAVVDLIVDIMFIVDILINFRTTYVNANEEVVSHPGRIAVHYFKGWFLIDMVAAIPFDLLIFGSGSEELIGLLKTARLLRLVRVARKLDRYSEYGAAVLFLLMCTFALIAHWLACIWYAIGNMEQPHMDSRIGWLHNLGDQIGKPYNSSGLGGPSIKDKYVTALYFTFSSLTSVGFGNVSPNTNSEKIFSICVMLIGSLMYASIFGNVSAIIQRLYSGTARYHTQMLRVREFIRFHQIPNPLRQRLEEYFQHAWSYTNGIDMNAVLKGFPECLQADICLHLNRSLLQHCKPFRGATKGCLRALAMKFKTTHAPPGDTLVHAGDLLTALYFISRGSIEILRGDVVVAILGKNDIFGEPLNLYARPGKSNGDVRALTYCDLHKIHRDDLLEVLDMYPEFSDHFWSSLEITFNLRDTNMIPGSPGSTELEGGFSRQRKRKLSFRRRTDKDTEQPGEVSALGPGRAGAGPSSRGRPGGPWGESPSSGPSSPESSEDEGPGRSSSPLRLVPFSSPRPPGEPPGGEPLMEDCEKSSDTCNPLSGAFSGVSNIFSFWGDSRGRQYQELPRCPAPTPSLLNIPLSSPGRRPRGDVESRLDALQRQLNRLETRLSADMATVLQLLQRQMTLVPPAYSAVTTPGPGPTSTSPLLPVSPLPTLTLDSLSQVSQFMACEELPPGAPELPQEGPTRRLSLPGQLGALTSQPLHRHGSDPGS
Sodium-dependent serotonin transporter, sequence (P31645 whole entry, looked up): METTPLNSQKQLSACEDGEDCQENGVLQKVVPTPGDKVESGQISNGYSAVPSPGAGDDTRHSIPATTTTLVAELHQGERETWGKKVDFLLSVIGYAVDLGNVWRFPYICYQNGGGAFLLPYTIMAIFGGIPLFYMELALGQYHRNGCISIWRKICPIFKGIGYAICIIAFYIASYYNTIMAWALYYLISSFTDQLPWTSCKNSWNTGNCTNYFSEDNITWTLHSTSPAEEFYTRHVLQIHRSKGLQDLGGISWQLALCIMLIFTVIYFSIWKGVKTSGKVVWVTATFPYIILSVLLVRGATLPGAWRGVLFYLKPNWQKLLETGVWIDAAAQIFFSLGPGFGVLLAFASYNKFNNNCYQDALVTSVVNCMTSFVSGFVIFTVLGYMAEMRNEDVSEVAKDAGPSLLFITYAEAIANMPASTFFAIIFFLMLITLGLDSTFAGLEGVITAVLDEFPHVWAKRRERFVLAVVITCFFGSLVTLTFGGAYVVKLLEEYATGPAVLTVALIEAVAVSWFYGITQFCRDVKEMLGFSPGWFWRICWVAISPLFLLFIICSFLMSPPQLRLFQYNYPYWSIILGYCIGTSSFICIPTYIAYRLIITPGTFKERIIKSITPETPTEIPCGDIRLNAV

In the case of `COc1cc(-c2cn(C3CSc4ccccc4N(CC(F)(F)F)C3=O)nn2)ccc1-n1cnc(C)c1` (centres undefined), the IC50 (in general, the concentration at which inhibition is half-maximal) in data set [1] amounted to 60 nM; in data set [2] it was 28400 nM; in data set [3], 4750 nM; in data set [5] it was 240 nM. Besides, the result in data set [4] and in data set [6] was Active.

On to `COc1cc(-c2cn([C@H]3C[C@H](C)c4ccccc4N(CC(F)(F)F)C3=O)nn2)ccc1-n1cnc(C)c1`, for which the IC50 in data set [1] was determined as 40 nM; in data set [2], 36600 nM; in data set [3], 6680 nM; in data set [5] it was 170 nM. Moreover, the outcome in data set [4] and in data set [6] was Active. Further, the half-life (commonly the time needed for the level to fall by half in the phase considered) in data set [7] amounted to 72 min.

For the compound `COc1cc(-c2cn(C3CCc4ccccc4N(Cc4ccccc4)C3=O)nn2)ccc1-n1cnc(C)c1` (racemic), the IC50 is 240 nM in data set [1], over 50000 nM in data set [2] and 2010 nM in data set [5].

Regarding `COc1cc(-c2cn(C3(C)CCc4ccccc4N(CC(F)(F)F)C3=O)nn2)ccc1-n1cnc(C)c1` (centres undefined), the concentration for half-maximal inhibition (IC50) was 580 nM in data set [1], over 50000 nM in data set [2], 6000 nM in data set [3] and 6380 nM in data set [5]. Moreover, the result in data set [4] and in data set [6] was Active.

Consider `COc1cc(-c2cn(C3CCc4ccccc4NC3=O)nn2)ccc1-n1cnc(C)c1` (centres undefined), for which the results for the concentration for half-maximal inhibition (IC50) in data set [1], in data set [2] and in data set [5] were 390 nM, 33000 nM and 4720 nM, respectively.

Regarding `COc1cc(-c2cn(C3CCc4ccccc4N(Cc4ccncc4)C3=O)nn2)ccc1-n1cnc(C)c1` (racemic), the results for the concentration for half-maximal inhibition (IC50) in data set [1], in data set [2] and in data set [5] were 1190 nM, over 50000 nM and 6750 nM, respectively.

Consider `COc1cc(-c2cn(C3CC[C@@H]4CCCC[C@H]4N(Cc4ccccc4)C3=O)nn2)ccc1-n1cnc(C)c1` (some centres undefined), for which the IC50 in data set [1] was 70 nM; in data set [2], over 50000 nM; in data set [5], 470 nM. Further, the outcome in data set [4] and in data set [6] was Active. Moreover, the inhibition entry in data set [8] was “inactive”.

Regarding `COc1cc(-c2cn(C3CCc4ccccc4N(CCF)C3=O)nn2)ccc1-n1cnc(C)c1` (centres undefined), the 50% inhibitory concentration (IC50) in data set [1] was 440 nM; in data set [2] it was over 50000 nM; in data set [5], 3140 nM.

Take `COc1cc(-c2cn(C3CCc4ncccc4N(CC(F)(F)F)C3=O)nn2)ccc1-n1cnc(C)c1` (centres undefined): the half-inhibitory concentration (IC50) is 150 nM in data set [1], 41800 nM in data set [2], over 50000 nM in data set [3] and 940 nM in data set [5]. Besides, the result in data set [4] and in data set [6] was Active. In addition, in data set [8], the inhibition result was “inactive”.

Consider `COc1cc(-c2cn(C3CCc4cc(F)ccc4N(CC(F)(F)F)C3=O)nn2)ccc1-n1cnc(C)c1` (centres undefined), for which the IC50 in data set [1] is 40 nM; in data set [2] it was 34100 nM; in data set [3], 2680 nM; in data set [5], 190 nM. Moreover, the outcome in data set [4] and in data set [6] was Active.

As for `COc1cc(-c2cn(C3CCc4ccccc4N(CC(F)F)C3=O)nn2)ccc1-n1cnc(C)c1` (centres undefined), the IC50 in data set [1] is 150 nM; in data set [2], over 50000 nM; in data set [5] it was 700 nM.

Consider `COc1cc(-c2cn(C3CCc4c(F)cc(F)cc4N(CC(F)(F)F)C3=O)nn2)ccc1-n1cnc(C)c1` (centres undefined), for which the concentration for half-maximal inhibition (IC50) in data set [1] is 40 nM; in data set [2], over 50000 nM; in data set [5] it was 150 nM. Further, the result in data set [4] and in data set [6] was Active.

Take `COc1cc(-c2cn(C3CCc4cccnc4N(CC(F)(F)F)C3=O)nn2)ccc1-n1cnc(C)c1` (centres undefined): the IC50 was 180 nM in data set [1], over 50000 nM in data set [2], 8740 nM in data set [3] and 1340 nM in data set [5]. Moreover, the result in data set [4] and in data set [6] was Active.

For `COc1cc(-c2cn(C3CCc4ccccc4N(Cc4ccccn4)C3=O)nn2)ccc1-n1cnc(C)c1` (racemic), the figures for the half-inhibitory concentration (IC50) in data set [1], in data set [2] and in data set [5] were 1080 nM, over 50000 nM and 5400 nM, respectively.

`COc1cc(-c2cn(C3CCc4ccccc4N(CC4(C)COC4)C3=O)nn2)ccc1-n1cnc(C)c1` (racemic): the half-inhibitory concentration (IC50) was 1250 nM in data set [1], over 50000 nM in data set [2] and 7480 nM in data set [5].

Regarding `COc1cc(-c2cn(C3CCc4ccccc4N(CC4CC4)C3=O)nn2)ccc1-n1cnc(C)c1` (centres undefined), the values for the concentration for half-maximal inhibition (IC50) in data set [1], in data set [2] and in data set [5] were 370 nM, 25600 nM and 3980 nM, respectively.

For the compound `COc1cc(-c2cn(C3CCc4c(ccc5ccccc45)N(CC(F)(F)F)C3=O)nn2)ccc1-n1cnc(C)c1` (centres undefined), the figures for the half-maximal inhibitory concentration (IC50) in data set [1], in data set [2] and in data set [5] were 30 nM, over 50000 nM and 70 nM, respectively. The outcome in data set [4] and in data set [6] was Active.

For the compound `COc1cc(-c2cn(C3CCc4ccccc4N(Cc4cccnc4)C3=O)nn2)ccc1-n1cnc(C)c1` (racemic), the IC50 in data set [1] was 880 nM; in data set [2], over 50000 nM; in data set [5], 4690 nM.

As for `COc1cc(-c2cn(C3CCc4ccccc4N(CC(F)(F)F)C3=O)nn2)ccc1-n1cnc(C)c1` (centres undefined), the IC50 is 70 nM in data set [1], over 50000 nM in data set [2] and 320 nM in data set [5]. In data set [7], this compound had a half-life of 35 min.

With `COc1cc(-c2cn(C3CCc4ccccc4N(C)C3=O)nn2)ccc1-n1cnc(C)c1` (centres undefined), the results for the IC50 in data set [1], in data set [2] and in data set [5] were 430 nM, over 50000 nM and 3080 nM, respectively.

In the case of `COc1cc(-c2cn(C3CCc4c(ccc(Br)c4F)N(CC(F)(F)F)C3=O)nn2)ccc1-n1cnc(C)c1` (centres undefined), the concentration for half-maximal inhibition (IC50) in data set [1] is 10 nM; in data set [2], over 50000 nM; in data set [3], 530 nM; in data set [5], 50 nM. The outcome in data set [4] and in data set [6] was Active.
